Our source for the MIC values is patent US5108997A, “Cephem compounds” (Fujisawa Pharmaceuticals Co., Ltd., priority 1986, dated 1992).

This assay concerns P. vulgaris 49. Description: In vitro antibacterial activity, two-fold agar-plate dilution method (MIC). Particulars: Proteus vulgaris, HI-agar, 10^6 viable cells per ml, 37° C. for 20 hours, read-out: MIC (minimal inhibitory concentration). It is filed as cell-based. The protocol: Now in order to show the utility of the object compounds [I], the test data on MIC (minimal inhibitory concentration) of representative compounds [I] of this invention are shown in the following.
In vitro antibacterial activity was determined by the two-fold agar-plate dilution method as described below.
One loopful of an overnight culture of each test strain in Trypticase-soy broth (10^6 viable cells per ml) was streaked on heart infusion agar (HI-agar) containing graded concentrations of representative test compound, and the minimal inhibitory concentration (MIC) was expressed in terms of μg/ml after incubation at 37° C. for 20 hours.

SMILES strings stand for the structures. Values after ≈ are worked out from the molar mass of the structure shown.

With `Cn1c(N)cc[n+]1CC1=C(C(=O)[O-])N2C(=O)C(NC(=O)C(=NOC(C)(C)C(=O)O)c3nsc(N)n3)C2SC1` (stereo not drawn) [Compound C, 7β-[2-(5-Amino-1,2,4-thiadiazol-3-yl)-2-(1-carboxyl-1-methylethoxyimino)acetamido]-3-(3-amino-2-methyl-1-pyrazolio)methyl-3-cephem-4-carboxylate(syn isomer)], the MIC worked out at 0.1 µg/mL (≈ 0.177 µM).

Regarding `Cn1c(N)cc[n+]1CC1=C(C(=O)[O-])N2C(=O)C(NC(=O)C(=NOCC(=O)O)c3nsc(N)n3)C2SC1` (stereo not drawn) [Compound A, 7β-[2-(5-Amino-1,2,4-thiadiazol-3-yl)-2-carboxymethoxyiminoacetamido]-3-(3-amino-2-methyl-1-pyrazolio)methyl-3-cephem-4-carboxylate (syn isomer)], the MIC worked out at 0.2 µg/mL (≈ 0.372 µM).

As to `Cn1c(NC=O)cc[n+]1CC1=C(C(=O)[O-])N2C(=O)C(NC(=O)C(=NOCC(=O)O)c3nsc(N)n3)C2SC1` (stereo not drawn) [Compound B, 7β-[2-(5-Amino-1,2,4-thiadiazol-3-yl)-2-carboxymethoxyiminoacetamide]-3-(3-formamido-2-methyl-1-pyrazolio)methyl-3-cephem-4-carboxylate (syn isomer)], the MIC came to 0.2 µg/mL (≈ 0.354 µM).
